Experimental data from PubChem BioAssay (NCI).
Several values for one entry are separate records, joined by “and”; a condition that tells them apart may be missing. Equal entries are not always repeated.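 A five-concentration, 48-hour dose response in 96-well plates underlies each endpoint, interpolated linearly between surrounding concentrations. The concentration for 50% growth inhibition is given as GI50. TGI: total growth inhibition.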

Assays:
Experiment in all cases: NCI tumour cell line growth inhibition, 48 h
HCC-2998 colon = test system: HCC-2998 colon
HOP-92 NSCLC = test system: HOP-92 NSCLC
IGROV1 ovarian = test system: IGROV1 ovarian
KM12 colon = test system: KM12 colon
MALME-3M melanoma = test system: MALME-3M melanoma
MDA-MB-231 breast = test system: MDA-MB-231 breast
NCI-H23 lung = test system: NCI-H23 lung
NCI-H460 lung = test system: NCI-H460 lung
RXF 393 renal = test system: RXF 393 renal
TK-10 renal = test system: TK-10 renal

SMILES	TGI (HCC-2998 colon)	TGI (HOP-92 NSCLC)	TGI (IGROV1 ovarian)	TGI (KM12 colon)	TGI (MALME-3M melanoma)	TGI (MDA-MB-231 breast)	TGI (NCI-H23 lung)	TGI (NCI-H460 lung)	TGI (RXF 393 renal)	TGI (TK-10 renal)	GI50 (HOP-92 NSCLC)	GI50 (IGROV1 ovarian)	GI50 (MALME-3M melanoma)	GI50 (NCI-H23 lung)	GI50 (TK-10 renal)	GI50 (KM12 colon)	GI50 (MDA-MB-231 breast)	GI50 (NCI-H460 lung)	GI50 (RXF 393 renal)	GI50 (HCC-2998 colon)
NC(=O)CCSC(CC(=O)c1ccc(Cl)cc1)c1ccc(Cl)cc1 (stereo unspecified)	32.7 µM	45.5 µM	34.8 µM	19.6 µM	66.8 µM	> 100 µM	> 100 µM	> 100 µM	32.6 µM	> 100 µM										
COC(=O)c1ccc2c(c1)sc1nc(-c3ccc(OC)cc3)cn12	> 100 µM	> 100 µM	> 100 µM	> 100 µM	> 100 µM	> 100 µM	> 100 µM	> 100 µM	> 100 µM	> 100 µM										
Cc1ccc2c3c1[C@@H]1O[C@@H]1c1cccc(c1-3)[C@@H]1O[C@H]21		36.8 µM		28.8 µM	31 µM	36.2 µM	31.8 µM			38.5 µM										
Cc1cc2c(cc1Cl)SC(c1ccccc1O)NS2(=O)=O (stereo unspecified)	> 100 µM	> 100 µM	> 100 µM	> 100 µM	61.8 µM	> 100 µM	> 100 µM	> 100 µM	> 100 µM	> 100 µM										
Cc1ccc(C(=O)Nc2ncn(C3CC(O)C(CO)O3)c(=O)n2)cc1 (stereo unspecified)	> 100 µM	> 100 µM	> 100 µM	> 100 µM	> 100 µM		> 100 µM	> 100 µM	> 100 µM											
CC(C)(C)c1cc(-c2nc3ccc(N4CCN(CCO)CC4)cc3[nH]2)cc(C(C)(C)C)c1O		4.44 µM	> 100 µM		2.83 µM		> 100 µM			> 100 µM	1.41 µM	3.25 µM	1.47 µM	4.65 µM	4.69 µM					
N=C(N)c1ccc(N=Nc2c(O)ccc3cc4c(N=Nc5ccc(C(=N)N)cc5)c(O)ccc4cc23)cc1	> 100 µM	> 100 µM	> 100 µM	> 100 µM	> 100 µM	> 100 µM		> 100 µM	> 100 µM	> 100 µM										
CCCCCCCCCCCCSC(=S)c1c(C)[nH]n(CCCCCCCCCCCC)c1=O	> 100 µM		> 100 µM	> 100 µM	> 100 µM		> 100 µM	> 100 µM												
N#Cc1c(-c2ccc(Cl)cc2)c2c([nH]c1=O)-c1cc([N+](=O)[O-])ccc1CCC2	35.7 µM	38.5 µM	60.3 µM	55.5 µM	> 100 µM	57.3 µM	36.2 µM	42.5 µM	37.6 µM	69.5 µM										
CCN(CCO)CCNc1ccc(C)c2sc3ccccc3c(=O)c12	5.2 µM	14.1 µM	12.9 µM	11.2 µM	8.05 µM	5.32 µM	21.3 µM	3.88 µM	5.64 µM	21.4 µM										
COc1ccc(N=Cc2ccc(N(CCC#N)S(=O)(=O)c3ccccc3)cc2C)cc1	> 100 µM	> 100 µM	> 100 µM		93.7 µM		> 100 µM	> 100 µM	> 100 µM	87.6 µM										
COc1cc(/C=C2\N=C(c3ccccc3)N(c3nc4ccc(Sc5ccccc5)cc4[nH]3)C2=O)cc(OC)c1OC	30.3 µM	> 100 µM	> 100 µM	58.8 µM	40.3 µM	50.3 µM	97.3 µM	51.4 µM	> 100 µM	57.4 µM										
O=c1c(-c2ccccc2)c(SCCN2CCOCC2)n(-c2ccccc2)c(=S)n1-c1ccccc1	> 100 µM	> 100 µM	> 100 µM	> 100 µM	> 100 µM	> 100 µM	> 100 µM	> 100 µM	> 100 µM	> 100 µM										
C=C1c2nc3ccccc3n2C=C(c2ccc(Cl)cc2)N1c1ccc(OCCN2CCCCC2)cc1	> 100 µM	> 100 µM	> 45 µM	> 100 µM	45 µM and > 100 µM	> 100 µM	> 100 µM	45 µM and > 100 µM	> 100 µM	> 100 µM	> 100 µM		0.415 µM	> 100 µM	> 100 µM	> 100 µM	> 100 µM	1.2 µM	> 100 µM	
O=C([CH-]C(=O)c1ccccc1)c1ccccc1.O=C([CH-]C(=O)c1ccccc1)c1ccccc1.O=C([CH-]C(=O)c1ccccc1)c1ccccc1.[Cl-].[Hf+4]		36.1 µM	> 100 µM	> 100 µM			83.4 µM	67.7 µM	23.2 µM	53.8 µM	10.9 µM	33.3 µM		15.8 µM	18.7 µM	21.1 µM		13.1 µM	7.68 µM	
Cn1c2cn[nH]c(=O)c2c2ccc3ccccc3c21		60.8 µM	32.2 µM	> 100 µM	> 100 µM	57.6 µM	67.2 µM	> 100 µM	62.9 µM	> 100 µM										
Cc1cn(Cc2cn(CC3OC(n4cc(C)c(=O)[nH]c4=O)CC3O)nn2)c(=O)[nH]c1=O (stereo unspecified)	> 100 µM			> 100 µM	> 100 µM	> 100 µM	> 100 µM		> 100 µM	> 100 µM										
COc1cc(C2C(=O)C(Cl)N2Nc2nc(C)cc(=O)[nH]2)cc(OC)c1OC (stereo unspecified)	33 µM	37.3 µM	35 µM	76.9 µM			50.3 µM	21.9 µM	26.4 µM	> 100 µM										

SMILES	TGI (HCC-2998 colon)	TGI (HOP-92 NSCLC)	TGI (IGROV1 ovarian)	TGI (KM12 colon)	TGI (MALME-3M melanoma)	TGI (MDA-MB-231 breast)	TGI (NCI-H23 lung)	TGI (NCI-H460 lung)	TGI (RXF 393 renal)	TGI (TK-10 renal)	GI50 (HOP-92 NSCLC)	GI50 (IGROV1 ovarian)	GI50 (MALME-3M melanoma)	GI50 (NCI-H23 lung)	GI50 (TK-10 renal)	GI50 (KM12 colon)	GI50 (MDA-MB-231 breast)	GI50 (NCI-H460 lung)	GI50 (RXF 393 renal)	GI50 (HCC-2998 colon)
CCCCCCCCCCCCCCCCCC(=O)OCC1OC(OC)C(NC(=O)N(CCCl)N=O)C(O)C1O (stereo unspecified)	> 100 µM		> 100 µM	67.9 µM	78.3 µM		43 µM	33.5 µM	32.1 µM	> 100 µM										
COc1cccc(NC(=O)CC(=O)NN2C(=O)/C(=C/c3ccc(N(CCC#N)CCC#N)cc3)N=C2c2cc([N+](=O)[O-])ccc2Cl)c1	> 100 µM	> 100 µM	> 100 µM	> 100 µM	> 100 µM		> 100 µM		> 100 µM	> 100 µM										
O=C1CS(=O)(=O)C(c2cccc(Oc3ccccc3)c2)N1C1CC1 (stereo unspecified)	> 100 µM	> 100 µM		> 100 µM	> 100 µM	> 100 µM	> 100 µM	> 100 µM	55.1 µM	> 100 µM										
O=S(=O)(O)c1ccc2c(N=Nc3ccccc3)c(O)ccc2c1	> 100 µM	> 100 µM	> 100 µM	> 100 µM	> 100 µM	> 100 µM	> 100 µM	> 100 µM	> 100 µM	> 100 µM										
C/C(=C\C(=N\NC(=N)N)c1ccccc1)c1ccccc1	1.86 µM	3.22 µM	2.11 µM	3.67 µM	3.5 µM		4.01 µM	11.1 µM	8.42 µM	14.1 µM										
Cn1c(=O)ccc2c(=O)c3ccccc3oc21	> 100 µM	> 100 µM	> 100 µM	> 100 µM	> 100 µM	> 100 µM	> 100 µM	> 100 µM	> 100 µM	> 100 µM										
Cc1cc(=O)n2c3c(c4c(cc13)c(CN(C)C)cc(=O)n4C)OC2	35.9 µM	97.6 µM	41.9 µM	67.7 µM	30.4 µM	98.7 µM	50.2 µM	> 100 µM	28.7 µM	> 88.6 µM										
C=C1CC2C3C=C(C)C4=CC(=O)CC[C@]4(C)C3CC[C@]2(C)[C@@]1(OC(C)=O)C(C)=O (stereo partly specified)			> 100 µM					> 100 µM	> 100 µM	> 100 µM		> 100 µM			> 100 µM			3.69 µM	4.31 µM	
COP(=O)(OC)[C@H](O)[C@H]1C[C@@H]1c1ccccc1	> 100 µM	> 100 µM	> 100 µM	> 100 µM	> 100 µM	> 100 µM	> 100 µM	> 100 µM	> 100 µM	> 100 µM										
CCCC[C@H]1C(=O)O[C@H](C)[C@H](NC(=O)c2cccc(NC=O)c2OC)C(=O)O[C@@H](C)[C@@H]1OC(=O)CC(C)C (tested in a mixture with another compound)	80.6 µM	27.2 µM	15 µM	46.9 µM	46.5 µM	29.8 µM	26.5 µM	21.4 µM	34.6 µM	30.7 µM										
O=CN1CCC23CC(O)CCC2C1Cc1cc(Oc2nnnn2-c2ccccc2)cc(O)c13 (stereo unspecified)	> 100 µM	> 100 µM	> 100 µM	> 100 µM	> 100 µM	> 100 µM	> 100 µM	> 100 µM	> 100 µM	> 100 µM										
CN1NC(c2ccccc2)=C(C#N)C(=O)CC1c1ccc(F)cc1 (stereo unspecified)	> 100 µM	> 100 µM		> 100 µM	> 100 µM		> 100 µM	> 100 µM	> 100 µM	> 100 µM										
O=c1[nH]c2cc([N+](=O)[O-])c(N/N=C/c3ccc(Cl)cc3Cl)c([N+](=O)[O-])c2[nH]1		> 100 µM	78.3 µM	25.8 µM	> 100 µM	60.5 µM	> 100 µM	> 100 µM	40.9 µM	> 100 µM										
COc1ccc(N=Nc2c(N)nn(C)c2N)cc1		> 100 µM	> 100 µM	> 100 µM	> 100 µM		> 100 µM	> 100 µM	> 100 µM	> 100 µM										
CCOC(=O)C12CC(C)=C(C)CC1CCCc1ccccc12 (stereo unspecified)	28.1 µM	38.8 µM	> 100 µM	> 100 µM	53.5 µM	31.5 µM	> 100 µM	32.7 µM	43.1 µM	77.8 µM										
O=c1[nH]c(=O)n(CCOCP(=O)(O)O)nc1Br	> 100 µM	> 100 µM	> 100 µM	> 100 µM	> 100 µM	> 100 µM	> 100 µM	> 100 µM	> 100 µM	> 100 µM										
Cn1cc(-c2nnc(-c3ccc(Cl)cc3)[nH]c2=O)c2ccccc21		> 100 µM	> 100 µM	> 23.9 µM	> 25.8 µM	> 84.9 µM	> 100 µM	> 44.1 µM	> 22.1 µM	42.7 µM										
C[C@H]1CCC/C=C/[C@@H]2C[C@H](O)C[C@H]2[C@H](O)/C=C/C(=O)O1	0.674 µM and 0.322 µM		1.12 µM and 0.973 µM and 0.645 µM		0.0745 µM and 0.0253 µM and 0.0382 µM	0.0821 µM and 0.0399 µM			0.0481 µM and 0.053 µM and 0.0188 µM	2.57 µM and 0.362 µM and 1 µM		0.0395 µM and 0.107 µM and 0.0723 µM		0.0531 µM		0.0197 µM	< 0.01 µM and 0.0205 µM and 0.0547 µM	0.036 µM and 0.0837 µM and 0.0828 µM		0.0623 µM and 0.054 µM
